According to patent US10961189B2, “Spiro-lactam NMDA receptor modulators and uses thereof” (Aptinyx Inc., priority 2016, dated 2021):
Read-outs that look alike come from different tables or passages of the source.

Tests used:
[1] = IV pharmacokinetics; format: in vivo, Sprague Dawley rats; conditions: rat, normal saline (* in 5% NMP, 5% Solutol HS, 90% normal saline); for AUC(0-t) / half-life / C0 / Vd: Sprague-Dawley, in vivo; for C0: read-out: C0; for Vd: read-out: Vss
Source text: The table below summarizes the results of the IV pharmacokinetics.

[2] = target: T1, NMDAR2A (Homo sapiens, UniProt Q12879); assay: [3H]MK-801 binding in NMDAR expressing HEK cell membranes (facilitation of NMDAR activation); format: biochemical; conditions: 50 μM glutamate; for EC50: read-out: B: log EC50 (converted); for Emax: 0.25 h, read-out: A: % maximal [3H]MK-801 binding relative to 1 mM glycine
T1 construct: expressed in transfected cells; host or cells: HEK cells (membrane extract)
Description: (§1) Assays were conducted as described by Moskal et al., “GLYX-13: a monoclonal antibody-derived peptide that acts as an N-methyl-D-aspartate receptor modulator,” Neuropharmacology, 49, 1077-87, 2005. These studies were designed to determine if the test compounds act to facilitate NMDAR activation in NMDAR2A, NMDAR2B, NMDAR2C or NMDAR2D expressing HEK cell membranes as measured by increases in [^3H]MK-801 binding.
(§2) In the assay, 300 μg of NMDAR expressing HEK cell membrane extract protein was preincubated for 15 minutes at 25° C. in the presence of saturating concentrations of glutamate (50 μM) and varying concentrations of test compound (1×10^15M−1×10^−7M), or 1 mM glycine. Following the addition of 0.3 μCi of [^3H]MK-801 (22.5 Ci/mmol), reactions were again incubated for 15 minutes at 25° C. (nonequilibrium conditions). Bound and free [^3H]MK-801 were separated via rapid filtration using a Brandel apparatus.
(§3) In analyzing the data, the DPM (disintegrations per minute) of [^3H]MK-801 remaining on the filter were measured for each concentration of test compound or for 1 mM glycine. The DPM values for each concentration of a ligand (N=2) were averaged. The baseline value was determined from the best fit curve of the DPM values modeled using the GraphPad program and the log(agonist) vs. response (three parameters) algorithm was then subtracted from all points in the dataset. The % maximal [^3H]MK-801 binding was then calculated relative to that of 1 mM glycine: all baseline subtracted DPM values were divided by the average value for 1 mM glycine. The EC50 and % maximal activity were then obtained from the best fit curve of the % maximal [^3H]MK-801 binding data modelled using the GraphPad program and the log(agonist) vs. response (three parameters) algorithm.
(§4) The tables below summarize the results for the wild type NMDAR agonists NMDAR2A, NMDAR2B, NMDAR2C, and NMDAR2D, and whether the compound is not an agonist (−), is an agonist (+), or is a strong agonist (++), where column A is based on the % maximal [^3H]MK-801 binding relative to 1 mM glycine (−=0; <100%=+; and >100%=++); and column B is based on log EC50 values (0=−; ≥1×10^−9 M (e.g., −8)=+; and <1×10^−9 M (e.g., −10)=++).

[3] = target: T2, NMDAR2B (Homo sapiens, UniProt Q13224); assay: as above; format: biochemical; conditions: 50 μM glutamate; for Emax: 0.25 h, read-out: A: % maximal [3H]MK-801 binding relative to 1 mM glycine; for EC50: read-out: B: log EC50 (converted)
T2 construct: expressed in transfected cells; host or cells: HEK cells (membrane extract)
Description: as §1, §2, §3, §4

[4] = oral pharmacokinetics (plasma, brain, CSF); format: in vivo, Sprague Dawley rats; conditions: rat, per os 10 mg/kg; for AUC(0-t) / bioavailability / Tmax / Cmax: Sprague-Dawley, plasma, po; for Tmax: normal saline (* in 5% NMP, 5% Solutol HS, 90% normal saline), read-out: Tmax; for Cmax: read-out: Cmax
Description: In another experiment, Sprague Dawley rats were dosed per os using a normal saline formulation containing 10 mg/kg of the compounds identified in the table below (except for the compounds marked with an asterisk (“*”) that were delivered in 5% NMP, 5% Solutol® HS and 90% normal saline formulation). Plasma, brain, and CSF samples were analyzed at various time points over a 24 hour period.

T2 sequence (Q13224 27-1484, species assumed, other chains not shown): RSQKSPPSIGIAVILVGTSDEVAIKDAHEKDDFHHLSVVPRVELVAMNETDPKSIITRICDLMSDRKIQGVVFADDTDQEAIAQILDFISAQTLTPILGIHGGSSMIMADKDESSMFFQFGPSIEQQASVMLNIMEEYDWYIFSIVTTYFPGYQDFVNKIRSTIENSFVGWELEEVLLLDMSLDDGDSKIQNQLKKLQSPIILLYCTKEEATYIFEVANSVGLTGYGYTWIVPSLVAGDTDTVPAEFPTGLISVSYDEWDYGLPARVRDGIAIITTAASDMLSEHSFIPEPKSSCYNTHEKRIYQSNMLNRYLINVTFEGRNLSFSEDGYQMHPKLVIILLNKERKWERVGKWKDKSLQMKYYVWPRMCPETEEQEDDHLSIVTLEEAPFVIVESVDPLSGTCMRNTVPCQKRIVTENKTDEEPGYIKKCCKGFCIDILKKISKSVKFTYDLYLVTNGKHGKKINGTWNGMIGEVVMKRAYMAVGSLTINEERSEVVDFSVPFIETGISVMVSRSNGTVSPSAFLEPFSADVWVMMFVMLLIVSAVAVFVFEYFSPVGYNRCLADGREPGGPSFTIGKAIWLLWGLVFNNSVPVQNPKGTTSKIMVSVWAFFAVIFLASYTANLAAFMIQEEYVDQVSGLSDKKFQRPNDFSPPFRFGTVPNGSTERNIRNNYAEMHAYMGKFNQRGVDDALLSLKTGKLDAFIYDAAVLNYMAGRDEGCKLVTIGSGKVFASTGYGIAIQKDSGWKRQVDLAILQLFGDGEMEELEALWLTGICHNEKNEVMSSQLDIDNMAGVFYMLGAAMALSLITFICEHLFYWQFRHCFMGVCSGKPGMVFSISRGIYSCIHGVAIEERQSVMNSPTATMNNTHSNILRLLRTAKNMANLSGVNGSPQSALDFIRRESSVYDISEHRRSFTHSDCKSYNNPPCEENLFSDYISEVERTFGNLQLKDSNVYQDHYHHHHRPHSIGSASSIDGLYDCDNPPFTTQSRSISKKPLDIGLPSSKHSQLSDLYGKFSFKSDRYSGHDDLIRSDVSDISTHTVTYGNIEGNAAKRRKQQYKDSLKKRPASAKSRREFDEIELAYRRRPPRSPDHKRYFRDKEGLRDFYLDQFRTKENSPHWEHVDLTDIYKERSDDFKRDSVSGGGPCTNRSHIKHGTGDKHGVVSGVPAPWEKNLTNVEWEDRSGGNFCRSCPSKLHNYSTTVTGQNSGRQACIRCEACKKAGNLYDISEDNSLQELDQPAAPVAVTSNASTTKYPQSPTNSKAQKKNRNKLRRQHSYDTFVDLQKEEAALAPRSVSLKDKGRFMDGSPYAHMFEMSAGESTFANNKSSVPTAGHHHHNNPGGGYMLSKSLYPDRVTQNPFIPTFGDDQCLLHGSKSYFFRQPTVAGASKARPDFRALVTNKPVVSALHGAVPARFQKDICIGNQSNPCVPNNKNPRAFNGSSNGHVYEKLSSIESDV
T1 sequence (Q12879 23-1464, species assumed, other chains not shown): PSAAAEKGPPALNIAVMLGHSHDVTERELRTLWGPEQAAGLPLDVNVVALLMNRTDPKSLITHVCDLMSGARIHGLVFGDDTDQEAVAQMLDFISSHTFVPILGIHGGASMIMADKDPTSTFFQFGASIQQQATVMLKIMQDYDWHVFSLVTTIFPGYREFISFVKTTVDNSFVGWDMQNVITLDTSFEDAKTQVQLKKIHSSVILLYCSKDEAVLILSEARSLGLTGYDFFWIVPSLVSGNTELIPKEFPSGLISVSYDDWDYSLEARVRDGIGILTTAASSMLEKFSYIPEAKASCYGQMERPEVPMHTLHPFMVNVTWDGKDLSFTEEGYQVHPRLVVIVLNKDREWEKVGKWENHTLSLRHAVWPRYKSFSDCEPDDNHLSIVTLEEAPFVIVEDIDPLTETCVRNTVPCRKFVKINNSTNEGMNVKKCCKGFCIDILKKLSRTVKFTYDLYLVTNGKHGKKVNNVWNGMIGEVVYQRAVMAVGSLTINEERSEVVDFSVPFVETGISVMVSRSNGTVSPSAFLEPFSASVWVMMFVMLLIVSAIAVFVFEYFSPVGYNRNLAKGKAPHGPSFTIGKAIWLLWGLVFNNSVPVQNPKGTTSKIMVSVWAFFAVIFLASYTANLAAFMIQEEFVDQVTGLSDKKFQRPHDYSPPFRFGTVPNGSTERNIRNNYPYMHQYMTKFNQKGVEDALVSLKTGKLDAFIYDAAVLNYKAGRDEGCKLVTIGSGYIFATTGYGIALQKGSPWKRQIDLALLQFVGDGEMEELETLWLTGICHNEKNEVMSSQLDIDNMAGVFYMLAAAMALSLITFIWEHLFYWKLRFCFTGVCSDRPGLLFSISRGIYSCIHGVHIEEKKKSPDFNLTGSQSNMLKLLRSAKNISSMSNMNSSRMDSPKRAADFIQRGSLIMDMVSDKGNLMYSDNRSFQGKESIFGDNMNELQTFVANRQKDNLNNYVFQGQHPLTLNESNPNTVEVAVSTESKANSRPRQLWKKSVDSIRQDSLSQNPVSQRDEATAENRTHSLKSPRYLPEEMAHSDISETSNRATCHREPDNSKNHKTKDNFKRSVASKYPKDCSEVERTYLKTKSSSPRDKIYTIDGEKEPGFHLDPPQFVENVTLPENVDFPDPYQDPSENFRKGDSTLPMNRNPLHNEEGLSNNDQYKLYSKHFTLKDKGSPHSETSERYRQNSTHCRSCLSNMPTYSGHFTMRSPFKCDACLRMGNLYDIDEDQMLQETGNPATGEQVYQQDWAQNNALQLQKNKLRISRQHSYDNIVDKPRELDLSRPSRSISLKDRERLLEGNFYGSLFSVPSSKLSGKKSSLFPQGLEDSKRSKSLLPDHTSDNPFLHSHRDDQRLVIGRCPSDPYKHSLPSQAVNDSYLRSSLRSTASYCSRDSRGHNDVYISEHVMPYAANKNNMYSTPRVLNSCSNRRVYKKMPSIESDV

Row | EC50 [2] [nM] | Emax [3] [%] | A: % maximal [3H]MK-801 binding relative to 1 mM glycine [2] | A: % maximal [3H]MK-801 binding relative to 1 mM glycine [3] | EC50 [3] [nM] | Structure (SMILES) | CI ([1]; intravenous 2 mg/kg) [mL/min/kg] | Emax [2] [%] | CSF Cmax [4] [ng/mL] | Brain Cmax [4] [ng/mL] | further results
1 | < 1 | – | + (<100%=+) | − (−=0) | – | COc1ccc(CN2CC3(CCC(OCc4ccccc4)CC3)C2=O)cc1 (single isomer, unassigned) [AE, 7-(benzyloxy)-2-(4-methoxybenzyl)-2-azaspiro[3.5]nonan-1-one] | – | – | – | – | –
2 | – | – | − (−=0) | + (<100%=+) | < 1 | COc1ccc(CN2CC3(CCC(OCc4ccccc4)CC3)C2=O)cc1 (single isomer, unassigned) [AF, 7-(benzyloxy)-2-(4-methoxybenzyl)-2-azaspiro[3.5]nonan-1-one] | – | – | – | – | –
3 | – | 0 | – | – | – | COc1ccc(CN2CC3(CCC(C)CC3)C2=O)cc1 (stereo not shown) [Compound AC, 2-(4-methoxybenzyl)-7-methyl-2-azaspiro[3.5]nonan-1-one] | – | 0 | – | – | –
4 | – | 0 | – | – | – | C[C@@H](O)[C@@H](C(N)=O)N1CC2(CCC(O)CC2)C1=O (stereo partly drawn) [Compound AM, (2S,3R)-3-hydroxy-2-(7-hydroxy-1-oxo-2-azaspiro[3.5]nonan-2-yl)butanamide] | – | 0 | – | – | –
5 | < 1 | 0 | – | – | – | CC1CCC2(CC1)CN([C@@H](CCC(=O)O)C(=O)O)C2=O (stereo partly drawn) [EQ, (S)-2-(7-methyl-1-oxo-2-azaspiro[3.5]nonan-2-yl)pentanedioic acid] | – | < 100 | – | – | –
6 | < 1 | > 100 | – | – | < 1 | O=C1NCC12CCC(NCc1ccccc1)CC2 (stereo not shown) [EX] | 50.52 | < 100 | 459.46 | 2799.98 | AUC(0-t) ([1]; intravenous 2 mg/kg): 659 ng·h/mL; half-life ([1]; intravenous 2 mg/kg): 70.8 min; C0 ([1]; intravenous 2 mg/kg): 1340 ng/mL; Vd ([1]; intravenous 2 mg/kg): 2.71 L/kg; bioavailability [4]: 100%; Tmax [4]: 120 min; AUC(0-t) [4]: 7380 ng·h/mL; Cmax [4]: 3190 ng/mL
7 | – | < 100 | − (−=0) | – | < 1 | CN(Cc1ccccc1)C1CCC2(CC1)CNC2=O (stereo not shown) [EY] | 27.44 | – | 539.09 | 1833.34 | AUC(0-t) ([1]; intravenous 2 mg/kg): 1210 ng·h/mL; half-life ([1]; intravenous 2 mg/kg): 33.6 min; C0 ([1]; intravenous 2 mg/kg): 2100 ng/mL; Vd ([1]; intravenous 2 mg/kg): 1.09 L/kg; bioavailability [4]: 48%; Tmax [4]: 30 min; AUC(0-t) [4]: 2920 ng·h/mL; Cmax [4]: 1130 ng/mL
8 | < 1 | – | + (<100%=+) | + (<100%=+) | < 1 | CN(Cc1ccccc1)C1CCC2(CC1)CNC2=O (stereo not shown) [EZ] | – | – | – | – | –
9 | – | – | − (−=0) | − (−=0) | – | CCN(Cc1ccccc1)C1CCC2(CC1)CNC2=O (stereo not shown) [FA] | – | – | – | – | –
10 | < 1 | – | + (<100%=+) | + (<100%=+) | < 1 | CCN(Cc1ccccc1)C1CCC2(CC1)CNC2=O (stereo not shown) [FB] | 41.98 | – | 981.8 | 3632.82 | AUC(0-t) ([1]; intravenous 2 mg/kg): 782 ng·h/mL; half-life ([1]; intravenous 2 mg/kg): 45 min; C0 ([1]; intravenous 2 mg/kg): 981 ng/mL; Vd ([1]; intravenous 2 mg/kg): 2.33 L/kg; bioavailability [4]: 87%; Tmax [4]: 30 min; AUC(0-t) [4]: 3410 ng·h/mL; Cmax [4]: 1590 ng/mL
11 | < 1 | 0 | + (<100%=+) | – | – | O=C1N(OCc2ccccc2)CC12CCC(O)CC2 (stereo not shown) [FE] | – | – | – | – | –
12 | – | – | − (−=0) | − (−=0) | – | O=C1N(OCc2ccccc2)CC12CCC(O)CC2 (stereo not shown) [FF] | – | – | – | – | –

Row | Structure (SMILES) | EC50 [2] [nM] | Emax [3] [%] | A: % maximal [3H]MK-801 binding relative to 1 mM glycine [2] | A: % maximal [3H]MK-801 binding relative to 1 mM glycine [3] | EC50 [3] [nM] | CI ([1]; intravenous 2 mg/kg) [mL/min/kg] | Emax [2] [%] | CSF Cmax [4] [ng/mL] | Brain Cmax [4] [ng/mL] | further results
13 | CC1CCC2(CC1)CN([C@H](C(N)=O)[C@@H](C)O)C2=O (mixture of isomers) [Compound AN, (2S,3R)-3-hydroxy-2-(7-methyl-1-oxo-2-azaspiro[3.5]nonan-2-yl)butanamide] | < 1 | 0 | – | – | – | 22.44 | < 100 | 1384.82 | 1501.76 | AUC(0-t) ([1]; iv, 2 mg/kg): 1470 ng·h/mL; half-life ([1]; iv, 2 mg/kg): 19.2 min; C0 ([1]; iv, 2 mg/kg): 3100 ng/mL; Vd ([1]; iv, 2 mg/kg): 0.59 L/kg; AUC(0-t) ([4]; 10 mg/kg): 4850 ng·h/mL; bioavailability ([4]; 10 mg/kg): 66%; Tmax ([4]; 10 mg/kg): 15 min; Cmax ([4]; 10 mg/kg): 4330 ng/mL
14 | CC1CCC2(CC1)CN(C(CCC(N)=O)C(N)=O)C2=O (single isomer, unassigned) [BE, 2-(7-methyl-1-oxo-2-azaspiro[3.5]nonan-2-yl)pentanediamide] | – | < 100 | − (−=0) | – | < 1 | – | – | – | – | –
15 | CC1CCC2(CC1)CN(C(CO)C(=O)O)C2=O (single isomer, unassigned) [EM, 3-hydroxy-2-(7-methyl-1-oxo-2-azaspiro[3.5]nonan-2-yl)propanoic acid] | < 1 | – | – | − (−=0) | – | – | < 100 | – | – | –
16 | CC1CCC2(CC1)CN(C(CO)C(=O)O)C2=O (single isomer, unassigned) [EN, 3-hydroxy-2-(7-methyl-1-oxo-2-azaspiro[3.5]nonan-2-yl)propanoic acid] | < 1 | – | + (<100%=+) | + (<100%=+) | < 1 | 19.38 | – | 22 | 61 | AUC(0-t) ([1]; iv, 2 mg/kg): 1760 ng·h/mL; half-life ([1]; iv, 2 mg/kg): 440 min; C0 ([1]; iv, 2 mg/kg): 9440 ng/mL; Vd ([1]; iv, 2 mg/kg): 1.16 L/kg; AUC(0-t) ([4]; 10 mg/kg): 2210 ng·h/mL; bioavailability ([4]; 10 mg/kg): 25%; Tmax ([4]; 10 mg/kg): 15 min; Cmax ([4]; 10 mg/kg): 1490 ng/mL
17 | O=C1NCC12CCC(OCc1ccccc1)CC2 (stereo not shown) [AJ, 7-(benzyloxy)-2-azaspiro[3.5]nonan-1-one] | – | 0 | – | – | – | – | 0 | – | – | –
18 | O=C1NCC12CCC(O)CC2 (stereo not shown) [AK, 7-hydroxy-2-azaspiro[3.5]nonan-1-one] | – | – | – | − (−=0) | – | – | 0 | – | – | –
19 | CC1CCC2(CC1)CN(CC(N)=O)C2=O (stereo not shown) [Compound BC, 2-(7-methyl-1-oxo-2-azaspiro[3.5]nonan-2-yl)acetamide] | < 1 | 0 | – | – | – | 145.13 | < 100 | 1362 | 2321 | AUC(0-t) ([1]; iv, 2 mg/kg): 233 ng·h/mL; half-life ([1]; iv, 2 mg/kg): 13.2 min; C0 ([1]; iv, 2 mg/kg): 658 ng/mL; Vd ([1]; iv, 2 mg/kg): 2.67 L/kg; AUC(0-t) ([4]; 10 mg/kg): 612 ng·h/mL; bioavailability ([4]; 10 mg/kg): 52%; Tmax ([4]; 10 mg/kg): 15 min; Cmax ([4]; 10 mg/kg): 869 ng/mL
